Key:
[1] = tested on: carrageenan-induced paw edema; test: Carrageenan-induced paw edema; format: in vivo, rat
Source text: Carrageenan-induced paw edema. The effects of peroxynitrite catalysts in vivo were initially tested on the carrageenan-induced paw edema. The choice of using this in vivo model of inflammation was based on the knowledge that 1) the inflammatory response is blocked by NOS inhibitors and 2) by superoxide dismutase (SOD). This indicates the participation of both NO and of O2-. Male Sprague Dawley rats were purchased from Harlan Sprague-Dawley (Indianapolis, Ind.). Male Sprague Dawley rats (175-200 g) received a subplantar injection in the right hind paw of carrageenan (0.1 ml of a 1% suspension in 0.85% saline). Paw volume was measured by a plethysmometer immediately before the injection of carrageenan and then at hourly intervals from 1 to 6 h. Edema was expressed as the increase in paw volume (in ml) measured after carrageenan injection compared to the pre-injection value for individual animals.

[2] = Stopped-flow kinetic analysis of catalytic decomposition of peroxynitrite by metal complexes; settings: pH = 7.4, 22° C.
Method: To screen metal complexes for peroxynitrite decomposition catalytic activity of the present invention, peroxynitrite is prepared and isolated as its sodium salt by the reaction of acidic hydrogen peroxide with sodium nitrite followed by rapid quenching with NaOH as set out by Halfpenny and Robinson, in J. Chem. So., 1952, 928-938. Peroxynitrite has an absorbance maximum at 302 nm with an extinction coefficient of 1670 M^-1 cm^-1. Therefore, it is possible to directly observe the decomposition of peroxynitrite by stop-flow spectrophotometric analysis by monitoring the decomposition of the absorbance at 302 nm. That is, such observation of the decomposition of peroxynitrite at a rate accelerated over the natural decomposition rate with the addition of the metal complex identifies a compound of the present invention.
Kinetic measurements were made on an OLIS Rapid Scanning Stopped-Flow Spectrometer (On-Line Instrument Systems Inc., Bogart, Ga.)) using the OLISRSM-1000 Operating system for data acquisition and manipulation.
Thus, in a typical experiment the natural background decomposition rate of sodium peroxynitrite was determined as follows. A 24 mM stock solution of sodium peroxynitrite in 50 mM NaOH is load into the small volume syringe and 100 mM potassium phosphate pH=7.4 is charged into the large volume syringe of the stopped-flow spectrophotometer. All stopped -flow measurements were made at 22 ° C. Injection of the solutions into the sample compartment results in ~25 fold dilution of the stock sodium peroxynitrite. […] To test for catalytic peroxynitrite decomposition activity, the metal complex was dissolved in 100 mM potassium phosphate buffer pH=7.4 and loaded into the large syringe and the decomposition of peroxynitrite was monitored as described above. The catalytic rate constant (kcat M-1 sec^-1) for the complexes tested was determined by varying the complex concentration and plotting kobs vs [complex] Table 1. The kobs were obtained from averages of three stopped flow analysis at each catalyst concentration.

[3] = tested on: human aortic endothelial cells; test: Endothelial cell injury assay (51Cr release), neutrophil-mediated; format: cell-based; settings: 2 h; TNF/C5a-activated neutrophils; FIG. 7
Method: Peroxynitrite catalyst, Fe(TMPyP), was added to neutrophils in the cell injury assay immediately before activation by TNF/C5a. After 2 h, the amount of specific cell injury was assessed by the amount of radiolabel released into the medium. Values represent the average of three replicas +/-SEM. *p<0.01 vs. 0 uM control by Dunnett's t Test.
[…]: Human recombinant tumor necrosis factor-alpha (TNF-a) was obtained from Genzyme Corporation, Cambridge, MA. Human recombinant complement C5a and L-arginine (L-arg) was purchased from Sigma Chemical Company, St. Louis, Mo. Authentic peroxynitrite in 50 mM NaOH was prepared as described above.
Preparation of Neutrophils: Human neutrophils were isolated from peripheral blood of healthy donors (Look, D. C., Rapp, S. R., Keller, B. T., and Holtzman, M. J. Am. J. Physiol., 263, L79-L87 [1992]). […]
Endothelial Cell Injury Assays: The cytotoxic effects of stimulated neutrophils or peroxynitrite on endothelial cells was determined using a ^51 Cr-release assay as described by Moldow (Moldow et. al. Methods Enzymol., 105, 378-385, [1984]). […]
^51 Cr release was determined by aspiration of the supernatant from each well (soluble fraction). […] Both fractions were analyzed by gamma scintillation spectrometry. Results were expressed as percent ^51 Cr release as follows: % release=cpm (soluble+nonadherent/total cpm per well)×100. […]

[4] = 3 mg/kg i.v., 1 h post carrageenan
[5] = 3 mg/kg i.v., 2 h post carrageenan
[6] = 3 mg/kg i.v., 3 h post carrageenan
[7] = 3 mg/kg i.v., 4 h post carrageenan
[8] = 3 mg/kg i.v., 5 h post carrageenan
[9] = 3 mg/kg i.v., 6 h post carrageenan
[10] = 10 mg/kg i.v., 1 h post carrageenan
[11] = 10 mg/kg i.v., 2 h post carrageenan
[12] = 10 mg/kg i.v., 3 h post carrageenan
[13] = 10 mg/kg i.v., 4 h post carrageenan
[14] = 10 mg/kg i.v., 5 h post carrageenan
[15] = 10 mg/kg i.v., 6 h post carrageenan
[16] = 30 mg/kg i.v., 1 h post carrageenan
[17] = 30 mg/kg i.v., 2 h post carrageenan
[18] = 30 mg/kg i.v., 3 h post carrageenan
[19] = 30 mg/kg i.v., 4 h post carrageenan
[20] = 30 mg/kg i.v., 5 h post carrageenan
[21] = 30 mg/kg i.v., 6 h post carrageenan

Row | SMILES | % Inhibition of Paw Edema [1, 4] [%] | % Inhibition of Paw Edema [1, 5] [%] | % Inhibition of Paw Edema [1, 6] [%] | % Inhibition of Paw Edema [1, 7] [%] | % Inhibition of Paw Edema [1, 8] [%] | % Inhibition of Paw Edema [1, 9] [%] | % Inhibition of Paw Edema [1, 10] [%] | % Inhibition of Paw Edema [1, 11] [%] | % Inhibition of Paw Edema [1, 12] [%] | % Inhibition of Paw Edema [1, 13] [%] | % Inhibition of Paw Edema [1, 14] [%] | % Inhibition of Paw Edema [1, 15] [%] | % Inhibition of Paw Edema [1, 16] [%] | % Inhibition of Paw Edema [1, 17] [%] | % Inhibition of Paw Edema [1, 18] [%] | % Inhibition of Paw Edema [1, 19] [%] | % Inhibition of Paw Edema [1, 20] [%] | % Inhibition of Paw Edema [1, 21] [%] | kcat, catalytic rate constant for the decomposition of sodium peroxynitrite [2] [M⁻¹ s⁻¹] | inhibition of neutrophil-mediated injury to endothelial cells [3]
1 | CC(=O)[O-].Cc1c(-c2c3nc(c(-c4c(C)c(S(=O)(=O)[O-])c(C)c(S(=O)(=O)[O-])c4C)c4ccc([n-]4)c(-c4c(C)c(S(=O)(=O)[O-])c(C)c(S(=O)(=O)[O-])c4C)c4nc(c(-c5c(C)c(S(=O)(=O)[O-])c(C)c(S(=O)(=O)[O-])c5C)c5ccc2[n-]5)C=C4)C=C3)c(C)c(S(=O)(=O)[O-])c(C)c1S(=O)(=O)[O-].[Fe+3].[Na+].[Na+].[Na+].[Na+].[Na+].[Na+].[Na+].[Na+] [Fe(III)TMPS, Acetato-5,10,15,20-tetrakis(3,5-disulfonatomesityl)porphyrin Iron (III) octasodium salt] | 0 | 42 | 47 | 47 | 33 | 33 | 0 | 61 | 60 | 53 | 53 | 47 | 0 | 85 | 80 | 80 | 80 | 81 | 160000 | –
2 | CC(=O)[O-].C[n+]1ccc(-c2c3nc(c(-c4cc[n+](C)cc4)c4ccc([n-]4)c(-c4cc[n+](C)cc4)c4nc(c(-c5cc[n+](C)cc5)c5ccc2[n-]5)C=C4)C=C3)cc1.Cc1ccc(S(=O)(=O)[O-])cc1.Cc1ccc(S(=O)(=O)[O-])cc1.Cc1ccc(S(=O)(=O)[O-])cc1.Cc1ccc(S(=O)(=O)[O-])cc1.[Fe+3] [Fe(III)TMPyP, Acetato (5,10,15,20-tetrakis(N-methyl-4-pyridyl)porphinato) iron (III) tetra-tosylate] | 0 | 9 | 10 | 17 | 6 | 0 | 6 | 13 | 11 | 28 | 21 | 2 | 0 | 44 | 43 | 50 | 32 | 32 | 2.75e+06 | Inhibition of neutrophil-mediated injury to human aortic endothelial cells

Source: patent publication US6245758A, “Methods of use for peroxynitrite decomposition catalysts, pharmaceutical compositions therefor” (priority 1996, dated 2001)
